Laboratory results published in ChEMBL document CHEMBL3351303, “Discovery of Imigliptin, a Novel Selective DPP-4 Inhibitor for the Treatment of Type 2 Diabetes” (ACS Med Chem Lett, 2014).

Tests used:
Dipeptidyl peptidase 8 = Dipeptidyl peptidase 8 (Homo sapiens, UniProt Q6V1X1); assay: Inhibition of human recombinant DPP8 pre-incubated with compound for 15 mins before substrate addition by luminescence assay
Dipeptidyl peptidase 9 = Dipeptidyl peptidase 9 (Homo sapiens, UniProt Q86TI2); assay: Inhibition of human recombinant DPP9 pre-incubated with compound for 15 mins before substrate addition by luminescence assay
[1] = Volume of distribution at steady state in rat at 4 mg/kg, iv; format: ADME, organism-based; parameters: dose 4 mg/kg, route intravenous; conditions: in vivo, read-out: Vdss
[2] = Clearance in rat at 4 mg/kg, iv; format: ADME, organism-based; parameters: dose 4 mg/kg, route intravenous; conditions: in vivo
[3] = Half life in rat at 4 mg/kg, iv; format: ADME, organism-based; parameters: dose 4 mg/kg, route intravenous; conditions: in vivo
[4] = Cmax in rat at 8 mg/kg, po; format: ADME, organism-based; parameters: dose 8 mg/kg, route oral; conditions: in vivo
[5] = AUClast in rat at 8 mg/kg, po; format: ADME, organism-based; parameters: time 0 - last, dose 8 mg/kg, route oral; conditions: plasma
[6] = Half life in rat at 8 mg/kg, po; format: ADME, organism-based; parameters: dose 8 mg/kg, route oral; conditions: in vivo
[7] = Oral bioavailability in rat at 8 mg/kg; format: ADME, organism-based; conditions: in vivo

Sequence of Dipeptidyl peptidase 8 (Q6V1X1 whole entry): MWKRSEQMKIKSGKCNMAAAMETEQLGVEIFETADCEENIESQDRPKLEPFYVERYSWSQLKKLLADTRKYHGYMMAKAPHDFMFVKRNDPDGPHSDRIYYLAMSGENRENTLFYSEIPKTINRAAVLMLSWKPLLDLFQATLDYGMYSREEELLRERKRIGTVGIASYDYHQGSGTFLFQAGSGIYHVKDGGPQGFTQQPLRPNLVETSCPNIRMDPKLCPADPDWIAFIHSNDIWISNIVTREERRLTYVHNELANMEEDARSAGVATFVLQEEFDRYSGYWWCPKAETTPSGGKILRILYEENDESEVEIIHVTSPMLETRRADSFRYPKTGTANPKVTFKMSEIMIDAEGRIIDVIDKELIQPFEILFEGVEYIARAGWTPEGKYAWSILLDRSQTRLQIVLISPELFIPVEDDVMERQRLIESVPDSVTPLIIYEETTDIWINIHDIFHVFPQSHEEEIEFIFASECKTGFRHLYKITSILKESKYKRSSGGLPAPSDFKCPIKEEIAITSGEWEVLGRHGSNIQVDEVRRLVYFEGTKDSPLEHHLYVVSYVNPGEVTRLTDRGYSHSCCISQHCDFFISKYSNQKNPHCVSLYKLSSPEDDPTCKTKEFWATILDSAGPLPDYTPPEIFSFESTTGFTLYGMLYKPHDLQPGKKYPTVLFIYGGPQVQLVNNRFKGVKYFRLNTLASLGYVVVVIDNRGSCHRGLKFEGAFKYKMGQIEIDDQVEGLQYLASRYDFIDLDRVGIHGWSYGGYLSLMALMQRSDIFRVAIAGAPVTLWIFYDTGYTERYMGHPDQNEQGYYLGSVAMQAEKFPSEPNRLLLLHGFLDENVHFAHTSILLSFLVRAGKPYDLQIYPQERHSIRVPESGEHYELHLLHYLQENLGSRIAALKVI
Sequence of Dipeptidyl peptidase 9 (Q86TI2 whole entry): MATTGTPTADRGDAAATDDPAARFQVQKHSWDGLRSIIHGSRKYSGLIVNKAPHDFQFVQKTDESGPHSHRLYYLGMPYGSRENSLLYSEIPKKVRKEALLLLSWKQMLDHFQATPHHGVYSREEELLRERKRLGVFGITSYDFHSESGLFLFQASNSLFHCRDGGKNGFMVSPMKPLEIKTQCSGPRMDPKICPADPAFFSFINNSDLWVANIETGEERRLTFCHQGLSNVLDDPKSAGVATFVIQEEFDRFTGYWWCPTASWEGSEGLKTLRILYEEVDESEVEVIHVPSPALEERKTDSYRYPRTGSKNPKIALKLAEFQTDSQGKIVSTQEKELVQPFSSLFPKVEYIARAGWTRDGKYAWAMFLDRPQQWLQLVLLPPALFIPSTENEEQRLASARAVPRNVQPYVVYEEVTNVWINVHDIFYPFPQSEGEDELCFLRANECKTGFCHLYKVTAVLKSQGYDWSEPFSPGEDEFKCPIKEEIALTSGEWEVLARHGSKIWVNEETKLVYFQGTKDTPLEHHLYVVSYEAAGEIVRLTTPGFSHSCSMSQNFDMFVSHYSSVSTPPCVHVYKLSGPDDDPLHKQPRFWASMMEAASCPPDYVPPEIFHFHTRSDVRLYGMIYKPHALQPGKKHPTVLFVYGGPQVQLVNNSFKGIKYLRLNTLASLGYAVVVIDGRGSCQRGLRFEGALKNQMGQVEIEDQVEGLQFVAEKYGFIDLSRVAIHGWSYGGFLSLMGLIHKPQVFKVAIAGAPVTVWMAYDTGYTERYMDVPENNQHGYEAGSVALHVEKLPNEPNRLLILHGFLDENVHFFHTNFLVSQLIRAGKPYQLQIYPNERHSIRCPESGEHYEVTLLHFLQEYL

`Cn1c(=O)n(Cc2ccccc2C#N)c2c(N3CCC[C@@H](N)C3)ncnc21` showed an IC50 (Dipeptidyl peptidase 8) greater than 100 µM, an IC50 (Dipeptidyl peptidase 9) greater than 100 µM and a Vd [1] of 2.78 L/kg. The clearance [2] was 61.2 mL/min/kg, the half-life [3] was 0.8 h and the Cmax [4] was 86 ng/mL. It also gave an AUC(0-t) [5] of 249 ng·h/mL, a half-life [6] of 1.5 h and a bioavailability [7] of 12%.
